Source: ChEMBL document CHEMBL4052640 (Eur J Med Chem, 2017)

Experiments:
Sindbis virus = assay type: functional; details: Vero
[1] = system: Vesicular stomatitis virus; assay: microbe, parasite or virus in culture; details: HeLa
Punta Toro virus = assay type: functional; details: Vero
MDCK = assay: Cytotoxicity against dog MDCK cells assessed as reduction in cell viability measured after 5 to 6 days by MTS assay; assay type: cell-based, Canis lupus familiaris
Coxsackievirus B4 [2] = assay type: functional, cell-based; details: Enterovirus B, HeLa
[3] = system: Mammalian orthoreovirus 1; assay type: functional; details: Mammalian orthoreovirus 1, Vero
cells [4] = details: Influenza A virus, MDCK
Yellow fever virus = assay: microbe, parasite or virus in culture; details: Vero
cells [5] = details: Influenza A virus, MDCK; remark: listed apart in the source
Human respirovirus 3 = assay: microbe, parasite or virus in culture; details: Human respirovirus 3, Vero
Coxsackievirus B4 [6] = assay type: functional; details: Enterovirus B, Vero
Influenza B virus = assay: microbe, parasite or virus in culture; details: B/Ned/537/05, MDCK
Influenza A virus [7] = assay type: functional, cell-based; details: A/Ned/378/05(H1N1), MDCK
Influenza A virus [8] = assay type: functional, cell-based; details: A/Ned/378/05(H1N1), MDCK; remark: listed apart in the source
cells [9] = details: MDCK
[10] = system: Respiratory syncytial virus; assay type: functional, cell-based; details: human respiratory syncytial virus, HeLa

Row | Structure (SMILES) | EC50 (Sindbis virus) | EC50 [1] | EC50 (Punta Toro virus) | CC50 (MDCK) | EC50 (Coxsackievirus B4 [2]) | EC50 [3] | EC50 (cells [4]) | EC50 (Yellow fever virus) | EC50 (cells [5]) | EC50 (Human respirovirus 3) | EC50 (Coxsackievirus B4 [6]) | EC50 (Influenza B virus) | EC50 (Influenza A virus [7]) | EC50 (Influenza A virus [8]) | EC50 (cells [9]) | EC50 [10]
1 | NC1=NC2(CCCCC2)N(c2cccc(C(F)(F)F)c2)C(N)=N1 | > 100 µM | > 100 µM | > 100 µM | > 100 µM | > 100 µM | > 100 µM | > 100 µM | > 100 µM | > 100 µM | > 100 µM | > 100 µM |  |  |  |  | 
2 | NC12CC3CC(CC(C3)C1)C2 [AMANTADINE] |  |  |  | > 400 µM |  |  | 211 µM |  | 124 µM |  |  | > 400 µM | 2.3 µM | 2.2 µM | > 400 µM | 
3 | CC1N=C(N)N=C(N)N1c1ccc(Cl)cc1 (stereo unspecified) | > 100 µM | > 100 µM | > 100 µM | > 100 µM | > 100 µM | > 100 µM | > 83 µM | > 100 µM | > 83 µM | > 100 µM | > 100 µM | 17 µM | > 100 µM | > 100 µM | 4.9 µM | 6.8 µM
4 | CC1(C)N=C(N)N=C(N)N1c1ccc(Br)cc1 | > 100 µM | > 100 µM | > 100 µM | 53 µM | > 100 µM | > 100 µM | 19 µM | > 100 µM | 39 µM | > 100 µM | > 100 µM | 2.9 µM | 21 µM | 7.3 µM | 1 µM | 0.16 µM
5 | CC1(C)N=C(N)N=C(N)N1c1ccccc1Cl | > 100 µM | > 100 µM | > 100 µM | > 100 µM | > 100 µM | > 100 µM | > 83 µM | > 100 µM | 34 µM | > 100 µM | > 100 µM | 56 µM | > 100 µM | > 100 µM | 19 µM | 48 µM
6 | CC1(C)N=C(N)N=C(N)N1c1ccc(Cl)cc1Cl | > 100 µM | > 100 µM | > 100 µM | > 100 µM | > 100 µM | > 100 µM | > 83 µM | > 100 µM | ≥ 83 µM | > 100 µM | > 100 µM | > 100 µM | > 100 µM | > 100 µM | > 100 µM | > 100 µM
7 | CC(C)C1(C)N=C(N)N=C(N)N1c1ccc(Cl)cc1 (stereo unspecified) | > 100 µM | > 100 µM | > 100 µM | > 100 µM | > 100 µM | > 100 µM | 24 µM | > 100 µM | 33 µM | > 100 µM | > 100 µM | 2.8 µM | 45 µM | 68 µM | 1 µM | 0.8 µM
8 | CC1(C)N=C(N)N=C(N)N1c1ccc([N+](=O)[O-])cc1 | > 100 µM | > 100 µM | > 100 µM | > 100 µM | > 100 µM | > 100 µM | > 83 µM | > 100 µM | > 83 µM | > 100 µM | > 100 µM | 35 µM | > 100 µM | > 100 µM | 7.8 µM | 27 µM
9 | CC1(C)N=C(N)N=C(N)N1c1cc(C(F)(F)F)cc(C(F)(F)F)c1 | > 100 µM | > 100 µM | > 100 µM | > 100 µM | > 100 µM | > 100 µM | 36 µM | > 100 µM | > 100 µM | > 100 µM | > 100 µM | 1.8 µM |  |  | 0.8 µM | 0.27 µM
10 | COc1ccc(N2C(N)=NC(N)=NC2(C)C)cc1 | > 100 µM | > 100 µM | > 100 µM | > 100 µM | > 100 µM | > 100 µM |  | > 100 µM |  | > 100 µM | > 100 µM |  |  |  |  | 
11 | [H]/N=C(\N/C(=N/[H])Nc1ccc(Cl)cc1)NC(C)C [PROGUANIL] | > 100 µM | > 100 µM | > 100 µM | > 100 µM | > 100 µM | > 100 µM | > 83 µM | > 100 µM | > 83 µM | > 100 µM | > 100 µM | > 100 µM | > 100 µM | > 100 µM | > 100 µM | > 100 µM
12 | CC1(C)N=C(N)N=C(N)N1c1cccc(Br)c1 | > 100 µM | > 100 µM | > 100 µM | 29 µM | > 100 µM |  | > 100 µM | > 100 µM | > 100 µM | > 100 µM | > 100 µM |  |  |  |  | 
13 | NC1=NC2(CCCCC2)N(c2cccc(Cl)c2)C(N)=N1 | > 100 µM | > 100 µM | > 100 µM | > 100 µM | > 100 µM | > 100 µM | > 100 µM | > 100 µM | > 100 µM | > 100 µM | > 100 µM | 10 µM |  |  | 3 µM | 
14 | CC1(C)N=C(N)N=C(N)N1c1ccc(Cl)c(Cl)c1 [CHLORCYCLOGUANIL] | > 100 µM | > 100 µM | > 100 µM | 6.7 µM | > 100 µM | 3.8 µM | 0.72 µM | > 100 µM | 1.4 µM | > 100 µM | > 100 µM | 0.08 µM | 0.55 µM | 0.35 µM | 0.03 µM | 0.0075 µM
15 | CC(N)C12CC3CC(CC(C3)C1)C2 (stereo unspecified) [RIMANTADINE] |  |  |  | > 400 µM |  |  |  |  |  |  |  | > 400 µM |  |  | > 400 µM | 
16 | CC1(C)N=C(N)N=C(N)N1c1ccc(Cl)cc1 [CYCLOGUANIL] | > 100 µM | > 100 µM | > 100 µM | 52 µM | > 100 µM | > 100 µM |  | > 100 µM |  | > 100 µM | > 100 µM |  |  |  |  | 
17 | CC1(C)N=C(N)N=C(N)N1c1cccc(Cl)c1 | > 100 µM | > 100 µM | > 100 µM | 1.4 µM | > 100 µM |  |  | > 100 µM |  | > 100 µM | > 100 µM |  |  |  |  | 
18 | CC1(C)N=C(N)N=C(N)N1c1cccc(F)c1 | > 100 µM | > 100 µM | > 100 µM | > 100 µM | > 100 µM | 9.5 µM | 21 µM | > 100 µM | > 100 µM | > 100 µM | > 100 µM | 1.7 µM |  |  | 0.2 µM | 0.01 µM
19 | NC1=NC2(CCCC2)N(c2cccc(C(F)(F)F)c2)C(N)=N1 | > 100 µM | > 100 µM | > 100 µM | > 100 µM | > 100 µM | > 100 µM | > 100 µM | > 100 µM | > 100 µM | > 100 µM | > 100 µM | 1.6 µM |  |  | 0.33 µM | 0.2 µM
20 | CC1(C)N=C(N)N=C(N)N1c1ccccc1 | > 100 µM | > 100 µM | > 100 µM | > 100 µM | > 100 µM | > 100 µM |  | > 100 µM |  | > 100 µM | > 100 µM |  |  |  |  | 
21 | NC(=O)c1ncn([C@@H]2O[C@H](CO)[C@@H](O)[C@H]2O)n1 [RIBAVIRIN] | > 250 µM |  | 29 µM |  |  | > 250 µM |  | > 250 µM |  |  | > 250 µM |  | 10 µM | 7.6 µM |  | 5.8 µM
22 | CC1(C)N=C(N)N=C(N)N1c1ccc(F)cc1 | > 100 µM | > 100 µM | > 100 µM | > 100 µM | > 100 µM | > 100 µM |  | > 100 µM |  | > 100 µM | > 100 µM |  |  |  |  | 
23 | COc1c(C)c2c(c(O)c1C/C=C(\C)CCC(=O)O)C(=O)OC2 [MYCOPHENOLIC ACID] | 1.4 µM |  |  |  |  |  |  | 2.3 µM |  | 0.4 µM | > 100 µM |  |  |  |  | 
24 | Cc1ccc(N2C(N)=NC(N)=NC2(C)C)cc1 | > 100 µM | > 100 µM | > 100 µM | > 100 µM | > 100 µM | > 100 µM | 34 µM | > 100 µM | 53 µM | > 100 µM | > 100 µM | 11 µM | 48 µM | 34 µM | 1.2 µM | 
25 | CC(=O)N[C@H]1[C@H]([C@H](O)[C@H](O)CO)OC(C(=O)O)=C[C@@H]1N=C(N)N [ZANAMIVIR] |  |  |  | > 100 µM |  |  | 6.8 µM |  | 2.3 µM |  |  | 0.06 µM |  |  | 0.055 µM | 
26 | CCc1nc(N)nc(N)c1-c1ccc(Cl)cc1 [PYRIMETHAMINE] |  | > 100 µM | > 100 µM | 41 µM | > 100 µM |  | > 83 µM | > 100 µM | > 83 µM |  |  |  |  |  |  | 
27 | NC1=NC2(CCCC2)N(c2cccc(Cl)c2)C(N)=N1 | > 100 µM | > 100 µM | > 100 µM | > 100 µM | > 100 µM | > 100 µM | 49 µM | > 100 µM | > 100 µM | > 100 µM | > 100 µM | 4.5 µM |  |  | 0.4 µM | 0.22 µM
